Read-outs that look alike come from different tables or passages of the source. One block for each compound: values may come before it.
Legend:
CYP2B6 = target: T1, CYP2B6 (Homo sapiens, UniProt P20813); assay: HLM-LC-MS CYP450 inhibition assay, CYP2B6; type: in vitro ADME; conditions: substrate bupropion 70 μM, hydroxylation, read-out: Compound IC50
T1 construct: from tissue; host or cells: human liver microsomes
T1 sequence (P20813 1-491): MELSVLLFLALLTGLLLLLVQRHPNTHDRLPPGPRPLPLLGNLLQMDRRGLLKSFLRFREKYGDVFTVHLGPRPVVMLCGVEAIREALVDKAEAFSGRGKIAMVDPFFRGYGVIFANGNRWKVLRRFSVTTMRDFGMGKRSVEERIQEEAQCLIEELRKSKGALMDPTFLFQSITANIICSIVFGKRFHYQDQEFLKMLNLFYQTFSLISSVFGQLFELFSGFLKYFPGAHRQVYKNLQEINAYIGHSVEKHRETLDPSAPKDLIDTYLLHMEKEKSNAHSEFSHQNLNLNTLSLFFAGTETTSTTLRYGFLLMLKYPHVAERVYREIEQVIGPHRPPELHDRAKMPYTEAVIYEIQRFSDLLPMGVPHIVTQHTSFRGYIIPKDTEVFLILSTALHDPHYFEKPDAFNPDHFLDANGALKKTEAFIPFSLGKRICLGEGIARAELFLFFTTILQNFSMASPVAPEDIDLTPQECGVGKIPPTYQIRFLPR
Procedure: (§1) Compounds were tested in triplicate.

[1] = Plasma pharmacokinetics after single I.P./I.V. dose in male Sprague-Dawley rats (LC-MS/MS); conditions: for MRTIV / clearance / k el: SD rats; for clearance / k el / half-life: male, Sprague-Dawley, rat, plasma, iv, 1 mg/kg; for clearance: CL; for k el: Kel; for half-life: t1/2, SD rats
in vivo = conditions: male, Sprague-Dawley, rat, iv; for AUC(0-inf): AUC0-inf; for AUC(0-t): AUC0-t
[2] = male, Sprague-Dawley, rat, in vivo, iv
[3] = Plasma pharmacokinetics after single I.P./I.V. dose in male BALB/c mice (LC-MS/MS); conditions: for AUC(0-inf): AUC0-inf; for AUC(0-t): AUC0-t; for Vd: VdSS; for clearance: CL; for k el: Kel
Procedure: After dosing, blood samples were collected at different time points for each group. […] Three animals were used for each time point. Approximately 800 μL of blood was collected via orbital vein (a source of collecting sufficient volume of venous blood) from each anesthetized mouse by isoflurane, and 200 μL of blood was collected from the cannula implanted in the jugular vein. The catheter was implanted when the blood sample was collected at the first time point. Next, the blood was transferred to a prepared tube containing sodium heparin anticoagulant and mixed briefly by gentle inversion three to four times. The target and actual time of blood sampling were recorded relative to the time of dosing. Samples were placed on wet ice immediately after collection. Within 1 hour after collection, plasma was separated by centrifugation at 4,000 rpm for 10 minutes at 4 °C. The plasma was protected from light and stored at −80 °C until analyzed by liquid chromatography-mass spectrometry/mass spectrometry (LC-MS/MS) for quantification.
Using the data from the standards, calibration curves were generated for each analytical batch. Aliquots of 10.0 μL of samples, calibraton curve samples, and QC samples were supplemented with 100 μL of precipitant (a mixture of acetone and acetonitrile (30:70)). After vortexing for 3 min and centrifuging at 12,000 rpm for 3 min, 75.00 μL of the supernatant was transferred into a 96-well microplate with an equal volume of water. The 10 μL mixture solution was injected for LC-MS/MS analysis.
Data collection was performed using Analyst version 1.4 from Applied Biosystems. […] The data were also analyzed using Prism 5.0 software. Statistical significance was determined using independent two-tailed Student t-tests and one-way ANOVA for independent data. Differences of P < 0.05 were regarded as significant for all statistical analyses.

CYP2C19 = target: T2, CYP2C19 (Homo sapiens, UniProt P33261); assay: HLM-LC-MS CYP450 inhibition assay, CYP2C19; type: in vitro ADME; conditions: substrate S-mephenytoin 35 μM, 4-hydroxylation, read-out: Compound IC50
T2 construct: from tissue; host or cells: human liver microsomes
T2 sequence (P33261 whole entry): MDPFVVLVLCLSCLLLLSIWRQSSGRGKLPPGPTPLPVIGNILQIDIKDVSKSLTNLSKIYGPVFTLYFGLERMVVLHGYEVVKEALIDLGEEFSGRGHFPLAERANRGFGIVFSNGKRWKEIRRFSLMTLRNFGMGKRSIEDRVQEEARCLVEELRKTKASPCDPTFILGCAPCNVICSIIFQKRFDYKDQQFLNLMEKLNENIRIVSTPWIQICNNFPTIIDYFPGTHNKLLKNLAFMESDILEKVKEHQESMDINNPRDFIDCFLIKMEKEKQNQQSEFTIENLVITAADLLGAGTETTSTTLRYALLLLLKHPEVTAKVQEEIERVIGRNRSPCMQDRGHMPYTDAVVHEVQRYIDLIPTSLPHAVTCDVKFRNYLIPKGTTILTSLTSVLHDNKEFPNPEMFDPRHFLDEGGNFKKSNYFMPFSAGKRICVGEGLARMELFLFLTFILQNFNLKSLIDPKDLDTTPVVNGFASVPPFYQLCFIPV
Procedure: as §1

[4] = doxorubicin I.V. 1.00 mg/kg alone
[5] = doxorubicin I.V. 1.00 mg/kg combined with NSC23925b 2.50 mg/kg
[6] = male, BALB/c, mouse, in vivo, iv, 2 mg/kg
[7] = male, BALB/c, mouse, plasma, iv, 2 mg/kg, BALB/c mice, doxorubicin I.V. 2.00 mg/kg alone
[8] = male, BALB/c, mouse, plasma, iv, 2 mg/kg, BALB/c mice, doxorubicin I.V. 2.00 mg/kg combined with NSC23925b 2.50 mg/kg
[9] = male, BALB/c, mouse, in vivo, iv, 5 mg/kg

SMILES: COC(=O)[C@H](c1ccccc1Cl)N1CCc2sccc2C1 [Clopidogrel, reference compound]
IC50 (CYP2B6): 0.914 µM

MRTIV [1, 4]: 11.1 ± 2.41 h | MRTIV [1, 5]: 16.1 ± 0.771 h | clearance [1, 4]: 151 ± 43.1 mL/min/kg | clearance [1, 5]: 120 ± 7.57 mL/min/kg | k el [1, 4]: 1.93e-05 s⁻¹ | k el [1, 5]: 1.35e-05 s⁻¹ | half-life [1, 4]: 10.5 ± 2.76 h | half-life [1, 5]: 14.3 ± 0.87 h | AUC(0-inf) (in vivo; 1 mg/kg): 117 ± 32.5 ng·h/mL | AUC(0-t) (in vivo; 1 mg/kg): 89.7 ± 35.6 ng·h/mL | Vd (in vivo; 1 mg/kg, VdSS): 97.1 ± 19.5 L/kg | AUMC0-t ([2]; 1 mg/kg): 446 ± 282 h·h·ng·mL^−1 | MRTIV ([3]; BALB/c mice, doxorubicin I.V. 2.00 mg/kg alone): 14.6 ± 5.71 h | MRTIV ([3]; BALB/c mice, doxorubicin I.V. 2.00 mg/kg combined with NSC23925b 2.50 mg/kg): 17.3 ± 4.17 h | AUMC0-inf [3, 6]: 4157 ± 2493 h·h·ng·mL^−1 | AUMC0-t [3, 6]: 1470 ± 309 h·h·ng·mL^−1 | AUC(0-inf) [3, 6]: 272 ± 53.7 ng·h/mL | AUC(0-t) [3, 6]: 207 ± 9.76 ng·h/mL | Vd [3, 6]: 105 ± 19.8 L/kg | clearance [3, 7]: 126 ± 22.4 mL/min/kg | clearance [3, 8]: 155 ± 19.2 mL/min/kg | k el [3, 7]: 1.89e-05 s⁻¹ | k el [3, 8]: 1.52e-05 s⁻¹ | half-life ([3]; male, BALB/c, mouse, plasma, iv, 2 mg/kg, t1/2, BALB/c mice, doxorubicin I.V. 2.00 mg/kg alone): 10.7 ± 3.29 h | half-life ([3]; male, BALB/c, mouse, plasma, iv, 2 mg/kg, t1/2, BALB/c mice, doxorubicin I.V. 2.00 mg/kg combined with NSC23925b 2.50 mg/kg): 12.8 ± 1.91 h
SMILES: COc1cccc2c1C(=O)c1c(O)c3c(c(O)c1C2=O)C[C@@](O)(C(=O)CO)C[C@@H]3O[C@H]1C[C@H](N)[C@H](O)[C@H](C)O1 [Doxorubicin, reference compound]

IC50 (CYP2C19): 4.08 µM
SMILES: COc1ccc2[nH]c([S+]([O-])Cc3ncc(C)c(OC)c3C)nc2c1 (centres unmarked) [Omeprazole, reference compound]

AUC(0-inf) (in vivo; 5 mg/kg): 4610 ± 517 ng·h/mL | AUC(0-t) (in vivo; 5 mg/kg): 4200 ± 492 ng·h/mL | clearance (in vivo; 5 mg/kg, CL): 18.2 ± 1.93 mL/min/kg | AUMC0-inf ([2]; 5 mg/kg): 29892 ± 4245 h·h·ng·mL^−1 | AUMC0-t ([2]; 5 mg/kg): 13231 ± 1265 h·h·ng·mL^−1 | Kel ([2]; 5 mg/kg): 0.0602 ± 0.0042 h⁻¹ | MRTIV ([2]; 5 mg/kg): 6.50 ± 0.853 h | VdSS ([2]; 5 mg/kg): 7.13 ± 1.34 L/kg | AUMC0-inf [3, 9]: 2911 ± 400 h·h·ng·mL^−1 | AUMC0-t [3, 9]: 2728 ± 356 h·h·ng·mL^−1 | MRTIV [3, 9]: 1.16 ± 0.147 h | AUC(0-inf) [3, 9]: 2520 ± 244 ng·h/mL | AUC(0-t) [3, 9]: 2500 ± 238 ng·h/mL | clearance [3, 9]: 33.2 ± 3.12 mL/min/kg | k el [3, 9]: 0.000149 s⁻¹ | Vd [3, 9]: 2.31 ± 0.428 L/kg | half-life ([3]; male, BALB/c, mouse, in vivo, iv, 5 mg/kg, t1/2): 1.33 ± 0.28 h
SMILES: CC(=O)O[C@H]1C(=O)[C@@]2(C)[C@H]([C@H](OC(=O)c3ccccc3)[C@]3(O)C[C@H](OC(=O)[C@H](O)[C@@H](NC(=O)c4ccccc4)c4ccccc4)C(C)=C1C3(C)C)[C@]1(OC(C)=O)CO[C@@H]1C[C@@H]2O [Paclitaxel, reference compound]

From publication PMC4860631, “Pharmacokinetics and tolerability of NSC23925b, a novel P-glycoprotein inhibitor: preclinical study in mice and rats” (Scientific Reports, 2016)
